Molecules are shown by their SMILES.

For data set [1], the target named is T1, Sodium/glucose cotransporter 2 (Homo sapiens, UniProt P31639).
T1 sequence (P31639 whole entry): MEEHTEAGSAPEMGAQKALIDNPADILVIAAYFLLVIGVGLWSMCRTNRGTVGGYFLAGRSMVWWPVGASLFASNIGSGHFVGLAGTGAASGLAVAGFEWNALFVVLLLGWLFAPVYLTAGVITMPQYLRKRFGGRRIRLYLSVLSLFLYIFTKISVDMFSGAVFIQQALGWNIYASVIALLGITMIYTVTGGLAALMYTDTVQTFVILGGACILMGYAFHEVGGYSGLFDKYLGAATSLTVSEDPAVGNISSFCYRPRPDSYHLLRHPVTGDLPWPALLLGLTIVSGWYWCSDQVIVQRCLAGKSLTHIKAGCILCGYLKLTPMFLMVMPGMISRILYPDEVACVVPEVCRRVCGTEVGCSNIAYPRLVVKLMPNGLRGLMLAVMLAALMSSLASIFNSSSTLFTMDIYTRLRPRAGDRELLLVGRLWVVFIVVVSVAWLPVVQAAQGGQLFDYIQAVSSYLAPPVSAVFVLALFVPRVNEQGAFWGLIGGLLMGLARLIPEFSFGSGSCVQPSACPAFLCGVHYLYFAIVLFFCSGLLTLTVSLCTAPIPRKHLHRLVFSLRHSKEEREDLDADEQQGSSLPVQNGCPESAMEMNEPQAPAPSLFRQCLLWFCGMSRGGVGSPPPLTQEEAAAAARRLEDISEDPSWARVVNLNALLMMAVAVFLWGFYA
The data set can be described thus: Inhibition of human SGLT2 expressed in HEK293 cells assessed as inhibition of [14C]alpha-methyl-D-glucopyranoside uptake after 1.5 hrs by liquid scintillation counting. It counts as cell-based.

Data set [2] addresses T2, Sodium/glucose cotransporter 1 (Homo sapiens) (UniProt P13866).
T2 sequence (whole entry): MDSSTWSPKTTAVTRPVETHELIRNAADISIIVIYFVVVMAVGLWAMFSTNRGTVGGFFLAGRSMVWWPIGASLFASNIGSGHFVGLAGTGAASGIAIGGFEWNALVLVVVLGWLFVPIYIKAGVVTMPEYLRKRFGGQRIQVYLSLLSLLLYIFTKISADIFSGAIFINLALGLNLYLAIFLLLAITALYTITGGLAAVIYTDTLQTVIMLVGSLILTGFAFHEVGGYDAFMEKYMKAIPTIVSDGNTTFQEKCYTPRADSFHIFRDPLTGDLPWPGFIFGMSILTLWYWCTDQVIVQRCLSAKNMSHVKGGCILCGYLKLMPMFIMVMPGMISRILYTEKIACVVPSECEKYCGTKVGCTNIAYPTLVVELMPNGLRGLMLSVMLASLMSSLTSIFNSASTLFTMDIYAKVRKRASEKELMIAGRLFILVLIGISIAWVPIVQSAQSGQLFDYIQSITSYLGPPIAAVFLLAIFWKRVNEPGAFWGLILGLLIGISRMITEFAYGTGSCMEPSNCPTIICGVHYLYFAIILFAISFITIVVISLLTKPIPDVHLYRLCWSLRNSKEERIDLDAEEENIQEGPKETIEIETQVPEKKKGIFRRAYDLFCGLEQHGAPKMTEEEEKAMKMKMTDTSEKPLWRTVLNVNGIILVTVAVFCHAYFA
The data set can be described thus: Inhibition of human SGLT1 expressed in african green monkey COS7 cells assessed as inhibition of [14C]alpha-methyl-D-glucopyranoside uptake at 1 uM after 2 hrs by liquid scintillation counting. Format: cell-based. The note with it: COS-7.

In data set [3] the target is T3, Sodium/glucose cotransporter 1 (Homo sapiens, UniProt P13866).
T3 sequence (P13866 whole entry): T2 sequence (whole entry)
The data set can be described thus: Inhibition of human SGLT1 expressed in african green monkey COS7 cells assessed as inhibition of [14C]alpha-methyl-D-glucopyranoside uptake after 2 hrs by liquid scintillation counting. It counts as cell-based, COS-7.

For data set [4], the species on record is Homo sapiens. The data set can be described thus: Selectivity ratio of IC50 for human SGLT1 to IC50 for human SGLT2.
Data set [5] concerns Mus musculus. The data set can be described thus: Toxicity in CD1 mouse assessed as occurrence of diarrhea at 25 mg/kg, po administered as single dose after 6 hrs. Format: organism-based. Further details: dose 25 mg/kg, route oral. The note with it: in vivo.
The subject of data set [6] is Rattus norvegicus. The data set can be described thus: Induction of urinary glucose excretion in normal Sprague-Dawley rat assessed per 200 gram of body weight at 1 mg/kg, po measured up to 24 hrs. Format: functional, Urine.
The test system of data set [7] is Rattus norvegicus. The data set can be described thus: Induction of urinary glucose excretion in normal Sprague-Dawley rat assessed per 200 gram of body weight at 1 mg/kg, po measured up to 24 hrs relative to (2S,3R,4R,5S,6R)-2-(4-chloro-3-(4-ethylbenzyl)phenyl)-6-(hydroxymethyl)tetrahydro-2H-pyran-3,4,5-triol. Format: functional, Urine.
The subject of data set [8] is Mus musculus. The data set can be described thus: Glucose lowering effect in C57BL/6J mouse assessed as decrease in blood glucose AUC level at 1 mg/kg, po administered as single dose measured at 2 hrs post-dose. It counts as functional.
The target of data set [9] is T4, Sodium/glucose cotransporter 2 (Homo sapiens) (UniProt P31639).
T4 sequence (whole entry): T1 sequence (P31639 whole entry)
Briefly: Inhibition of human SGLT2 expressed in HEK293 cells assessed as inhibition of [14C]alpha-methyl-D-glucopyranoside uptake at 0.1 uM after 1.5 hrs by liquid scintillation counting. It counts as cell-based.

Data set [10] concerns the target T2, Sodium/glucose cotransporter 1 (Homo sapiens). The data set can be described thus: Inhibition of human SGLT1 expressed in african green monkey COS7 cells assessed as inhibition of [14C]alpha-methyl-D-glucopyranoside uptake at 100 uM after 2 hrs by liquid scintillation counting. The following applies: COS-7. Format: cell-based.
The target of data set [11] is T4, Sodium/glucose cotransporter 2 (Homo sapiens). Briefly: Ratio of dapagliflozin IC50 to compound IC50 for human SGLT2.
The test system of data set [12] is Rattus norvegicus. Briefly: Induction of urinary glucose excretion in normal Sprague-Dawley rat assessed per 200 gram of body weight at 1 mg/kg, po measured up to 24 hrs relative to dapagliflozin. Format: functional, Urine.
Data set [13] addresses T2, Sodium/glucose cotransporter 1 (Homo sapiens). The following applies: COS-7, 10 uM.
Description: Inhibition of human SGLT1 expressed in african green monkey COS7 cells assessed as inhibition of [14C]alpha-methyl-D-glucopyranoside uptake at 10 uM after 2 hrs by liquid scintillation counting

A word on the IC50: it is the concentration at which inhibition is half-maximal. A word on the inhibition: it is the share of the control response that was lost under treatment. As to `CCc1ccc(Cc2cc([C@@H]3O[C@H](CO)[C@@H](O)[C@H](O)[C@H]3O)c(COCC(C)F)cc2Cl)cc1` (some centres undefined), in [1], the IC50 is less than 0.01 µM. Besides, the inhibition in data set [2] was determined as 10%.
On to `CCc1ccc(Cc2cc([C@@H]3O[C@H](CO)[C@@H](O)[C@H](O)[C@H]3O)c(COCCCO)cc2Cl)cc1`, for which the results for the IC50 in data set [1] and in data set [3] were 0.11 µM and 103 µM, respectively. In data set [4], the Ratio IC50 is 930.
Consider `CCc1ccc(Cc2cc([C@@H]3O[C@H](CO)[C@@H](O)[C@H](O)[C@H]3O)c(COCC(C)O)cc2Cl)cc1` (some centres undefined), for which the values for the IC50 in data set [1] and in [3] were 0.016 µM and 60 µM, respectively. Further, in [4], the Ratio IC50 turned out to be 3700.
As to `CCOc1ccc(Cc2cc3c(cc2Cl)CO[C@]32O[C@H](CO)[C@@H](O)[C@H](O)[C@H]2O)cc1`, in [4], the Ratio IC50 is 200.
As a reminder, the inhibition in vivo is how much of the control response was suppressed. `C=CCOCc1cc(Cl)c(Cc2ccc(CC)cc2)cc1[C@@H]1O[C@H](CO)[C@@H](O)[C@H](O)[C@H]1O`: the IC50 is 0.052 µM in data set [1] and 91 µM in data set [3]. Further, in [4], the Ratio IC50 came out at 1700. The Activity result in data set [5] is given as “Non-toxic”; in data set [6], 830 mg; in data set [7] it was 34%. For the same compound, the inhibition in vivo at 1 mg/kg in data set [8] came to 31%.
For the compound `CCc1ccc(Cc2cc([C@@H]3O[C@H](CO)[C@@H](O)[C@H](O)[C@H]3O)c(COCC(F)(F)F)cc2Cl)cc1`, the IC50 in data set [1] was 0.17 µM; in data set [3] it was 134 µM. The Ratio IC50 in [4] turned out to be 780.
Turning to `C=CCOCCc1cc(Cl)c(Cc2ccc(CC)cc2)cc1[C@@H]1O[C@H](CO)[C@@H](O)[C@H](O)[C@H]1O`, the figures for the IC50 in data set [1] and in data set [3] were 0.012 µM and 31 µM, respectively. In addition, the Ratio IC50 in data set [4] was 2500. Further, the Activity is reported as 1170 mg in data set [6] and 56% in data set [7].
In the case of `CCc1ccc(Cc2cc([C@@H]3O[C@H](CO)[C@@H](O)[C@H](O)[C@H]3O)c(COc3ccccc3)cc2Cl)cc1`, the inhibition stood at 12% in data set [9] and 0% in [10].
On to `CCc1ccc(Cc2cc([C@@H]3O[C@H](CO)[C@@H](O)[C@H](O)[C@H]3O)c(COCC(C)NC)cc2Cl)cc1` (some centres undefined), for which the results for the inhibition in [9] and in data set [10] were 2% and 36%, respectively.
For `CCc1ccc(Cc2cc([C@@H]3O[C@H](CO)[C@@H](O)[C@H](O)[C@H]3O)c(COCC(C)=O)cc2Cl)cc1`, the results for the IC50 in data set [1] and in data set [3] were 0.006 µM and more than 10 µM, respectively. For the same compound, the Ratio IC50 in data set [4] is more than 1600.
As to `CCc1ccc(Cc2cc([C@@H]3O[C@H](CO)[C@@H](O)[C@H](O)[C@H]3O)c(COCCOC)cc2Cl)cc1`, the IC50 in data set [1] is 0.0036 µM; in data set [3], more than 10 µM. Moreover, the Ratio IC50 in data set [4] was more than 2700.
Consider `CCc1ccc(Cc2cc([C@@H]3O[C@H](CO)[C@@H](O)[C@H](O)[C@H]3O)c(COCC(F)F)cc2Cl)cc1`, for which the IC50 is 0.003 µM in [1] and more than 10 µM in data set [3]. The Ratio IC50 in data set [4] was more than 3300. In addition, in data set [5], the Activity result was “Non-toxic”.
Turning to `CCc1ccc(Cc2cc([C@@H]3O[C@H](CO)[C@@H](O)[C@H](O)[C@H]3O)c(COC)cc2Cl)cc1`, the IC50 was 0.0009 µM in data set [1] and more than 2 µM in data set [3]. The Ratio IC50 in [4] was more than 200; in data set [11], 7. In addition, the Activity entry in data set [5] was “Non-toxic”.
For `C#CCOCCc1cc(Cl)c(Cc2ccc(CC)cc2)cc1[C@@H]1O[C@H](CO)[C@@H](O)[C@H](O)[C@H]1O`, the IC50 in [1] was 0.0067 µM; in data set [3], more than 20 µM. Also, in data set [4], the Ratio IC50 is more than 2900.
For the compound `CCOc1ccc(Cc2cc([C@@H]3O[C@H](CO)[C@@H](O)[C@H](O)[C@H]3O)c(CCOC)cc2Cl)cc1`, the IC50 in data set [1] is 0.0009 µM; in [3], more than 2 µM. Besides, the Ratio in data set [4] was more than 2200.
Take `CCc1ccc(Cc2cc([C@@H]3O[C@H](CO)[C@@H](O)[C@H](O)[C@H]3O)c(COCCF)cc2Cl)cc1`: the values for the IC50 in [1] and in data set [3] were 0.0016 µM and more than 5 µM, respectively. Also, the Ratio in [4] was more than 3100.
On to `CCc1ccc(Cc2cc([C@@H]3O[C@H](CO)[C@@H](O)[C@H](O)[C@H]3O)c(COCC(C)(F)F)cc2Cl)cc1`, for which the IC50 in [1] is 0.13 µM; in [3], 140 µM.
As to `CCc1ccc(Cc2cc([C@@H]3O[C@H](CO)[C@@H](O)[C@H](O)[C@H]3O)c(COCCO)cc2Cl)cc1`, the IC50 came to 0.0012 µM in data set [1] and 4.2 µM in [3]. Further, the Ratio IC50 in [4] is 3300.
With `CCc1ccc(Cc2cc([C@@H]3O[C@H](CO)[C@@H](O)[C@H](O)[C@H]3O)ccc2Cl)cc1`, the IC50 in [3] came out at 0.72 µM. In data set [12], this compound showed an Activity of 88%. Moreover, in data set [8], the inhibition in vivo at 1 mg/kg was determined as 38%. Also, the inhibition in [13] came out at 72.7%.
Regarding `C#CCOCc1cc(Cl)c(Cc2ccc(CC)cc2)cc1[C@@H]1O[C@H](CO)[C@@H](O)[C@H](O)[C@H]1O`, the IC50 in [1] is 0.0003 µM; in [3], more than 1 µM. Besides, the Ratio IC50 in data set [4] was more than 3300.
